Patent publication US20240261266A1, “BENZIMIDAZOLE COMPOUND OR SALT THEREOF, CANINE FILARIASIS CONTROL AGENT CONTAINING SAME, AND METHOD OF USE THEREOF” (NIHON NOHYAKU CO., LTD., priority 2021, published 2024)

Tested on: Canine filariae (Dirofilaria immitis) L-3 stage larvae
Experiment: Impact evaluation test on growth of canine filariae (L3 to L4)
Details: 168 h, read-out: growth inhibition rate (growth from L3-stage larvae to L4-stage larvae)

Work on `CCCCC#Cc1ccc(-c2nc3c(Br)cc(Br)cc3[nH]2)o1` [Compound 1-11, 4,6-dibromo-2-(5-(1-hexynyl)-2-furyl)benzimidazole] yielded an inhibition at 50 ppm of no less than 50%.
